Data as given in US7482308B2, “Difluoromethanesulfonyl anilide derivatives useful as herbicides” (Bayer CropScience AG, priority 2004, dated 2009).

How the values were obtained:
Assay type in all cases: in vivo
[1] = test system: sulfonylurea resistant Scirpus juncoides Roxburgh (collected in Iwamizawa area, Hokkaido); assay: Test for herbicidal effect against sulfonylurea resistant weeds (Test Example 3); conditions: applied at beginning of emergence, examined 3 weeks after treatment
Text: (§1) In a green house seeds of Scirpus juncoides Roxburgh (collected in Iwamizawa area, Hokkaido), Lindernia procumbens Philcox (collected in Kazo area, Saitama Pref.), Lindernia procumbens Philcox (collected in Higashi-Hiroshima area, Hiroshima Pref.), Elatine triandra Schk (collected in Kazo area, Saitama Pref.), all of which were confirmed as sulfonylurea resistant, were inoculated in a 20 cm^2 cup filled with paddy field soil. Then water was poured to a depth of about 2 to 3 cm. At the beginning of emergence of each weed, a prescribed, diluted solution of the formulation of each active compound prepared in the same manner as the above-mentioned Test Example 1 was applied to the surface of water. After the treatment the water depth of 3 cm was maintained and the herbicidal effect was examined after 3 weeks from the treatment. The evaluation of the herbicidal effect was conducted in the same manner as the above-mentioned Test Example 1. In case of showing higher than 80% herbicidal effect, it is evaluated as practical as herbicide. In consideration of the possibility that the biological properties including herbicide resistance of the plants grown in different areas might be different, sulfonylurea resistant Lindernia procumbens Philcox collected in two different areas were used in the present tests. The study results with the compounds No. 1, 3, 11 and 17 and the comparative compound No. C-1 as specific examples are shown in the following Table 6.

[2] = test system: sulfonylurea resistant Lindernia procumbens Philcox (collected in Higashi-Hiroshima area, Hiroshima Pref.); assay: as above; conditions: applied at beginning of emergence, examined 3 weeks after treatment
Text: as §1

[3] = test system: sulfonylurea resistant Elatine triandra Schk (collected in Kazo area, Saitama Pref.); assay: as above; conditions: applied at beginning of emergence, examined 3 weeks after treatment
Text: as §1

[4] = test system: sulfonylurea resistant Lindernia procumbens Philcox (collected in Kazo area, Saitama Pref.); assay: as above; conditions: applied at beginning of emergence, examined 3 weeks after treatment
Text: as §1

[5] = test system: Monochoria vaginalis Presi; assay: Test for herbicidal effect against paddy field weeds (Test Example 1); conditions: examined 3 weeks after treatment
Procedure: (§2) Preparation of Formulation of the Active Compound
(§3) • Carrier: DMF 5 parts by weight • Emulsifier: Benzyloxy polyglycol ether 1 part by weight
(§4) A formulation of an active compound is obtained as an emulsifiable concentrate by mixing 1 part by weight of the active compound with the above-mentioned amount of the carrier and emulsifier. A prescribed amount of the formulation is diluted with water.
(§5) In a green house seeds or tubers of Scirpus juncoides Roxburgh, Monochoria vaginalis Presi, annual broad-leaved weeds (Lindemia procumbens Philcox, Rotala indica Koehne, Elatine triandra Schk, Ammannia multiflora Roxb., etc.), Cyperus serotinus Rottboel were inoculated in a 500 cm^2 pot filled with paddy field soil. Then water was poured to a depth of about 2-3 cm. Five days and 13 days after inoculation, a prescribed, diluted solution of the formulation of each active compound, prepared according to the aforementioned preparation method, was applied to the surface of water. After the treatment the water depth of 3 cm was maintained and the herbicidal effect was examined after 3 weeks from the treatment.
(§6) The herbicidal effect was rated 100% in the case of complete death and as 0% in the case of no herbicidal effect. In case of showing higher than 80% herbicidal effect, it is evaluated as practical as herbicide.

[6] = test system: Cyperus serotinus Rottboel; assay: as above; conditions: examined 3 weeks after treatment
Procedure: as §2, §3, §4, §5, §6

[7] = test system: Scirpus juncoides Roxburgh; assay: as above; conditions: examined 3 weeks after treatment
Procedure: as §2, §3, §4, §5, §6

[8] = test system: annual broad-leaved weeds; assay: as above; conditions: examined 3 weeks after treatment
Procedure: as §2, §3, §4, §5, §6

[9] = test system: Monochoria vaginalis Presi; assay: Test for residual effectiveness against paddy field weeds (Test Example 2); conditions: 60 g ai/ha; period of maintaining herbicidal effect of higher than 80%
Text: (§7) In a green house a 1000 cm^2 pot was filled with paddy field soil and water was poured to a depth of about 2 to 3 cm. A prescribed, diluted solution of the above-mentioned Test Example 1, was applied to the surface of water. After the prescribed time after the treatment (just after treatment, 1 week, 2 weeks, 3 weeks, 4 weeks, 5 weeks, 6 weeks and 7 weeks after treatment), seeds or tubers of the weeds to be tested Scirpus juncoides Roxburgh, Monochoria vaginalis Presi, annual broad-leaved weeds (Lindernia procumbens Philcox, Rotala indica Koehne, Elatine triandra Schk, Ammannia multiflora Roxb., etc.), Cyperus serotinus Rottboel and Sagittaria pygmaea Miq. were inoculated. Three weeks after the inoculation each herbicidal effect was examined.
(§8) The evaluation of the residual effectiveness was shown as the period (number of weeks) of maintaining herbicidal effect of higher than 80%, after the evaluation of herbicidal effect had been conducted in the similar manner as the above-mentioned Test Example 1.

[10] = test system: Sagittaria pygmaea Miq.; assay: as above; conditions: 60 g ai/ha; period of maintaining herbicidal effect of higher than 80%
Text: as §7, §8

[11] = test system: Cyperus serotinus Rottboel; assay: as above; conditions: 60 g ai/ha; period of maintaining herbicidal effect of higher than 80%
Text: as §7, §8

[12] = test system: Scirpus juncoides Roxburgh; assay: as above; conditions: 60 g ai/ha; period of maintaining herbicidal effect of higher than 80%
Text: as §7, §8

[13] = test system: annual broad-leaved weeds; assay: as above; conditions: 60 g ai/ha; period of maintaining herbicidal effect of higher than 80%
Text: as §7, §8

[14] = test system: Monochoria vaginalis Presi; assay: Herbicidal effect against paddy field weeds, spray at two leaf-stage of rice (Test Example 5); conditions: 50 g ai/ha, evaluated 3 weeks after treatment
Text: (§9) In a greenhouse seeds of Scirpus juncoides Roxburgh, Monochoria vaginalis Presi, Cyperus difformis L., annual broad-leaved weeds (Lindernia procumbens Philcox, Rotala indica Koehne, Elatine triandra Schk, Ammannia multiflora Roxb.) and rice (var.: Nipponbare and RD-23) were inoculated in a 500 cm^2 pot filled with paddy field soil. Then water was poured to a depth of about 0 to about 0.5 cm, to be a wet condition. At two leaf-stage of rice, a prescribed, diluted solution of the formulation of each active compound, prepared in the same manner as the above-mentioned Test Example 1, was sprayed over the pots with plants. At 2 days after the treatment, the water depth of 3 cm was maintained and the herbicidal effect and rice injury was evaluated at 3 weeks and 2 weeks after the treatment, respectively.
(§10) The herbicidal effect and rice injury were rated 100% in the case of complete death and as 0% in the case of no effect or injury. In case of showing higher than 80% herbicidal effect and less than 20% injury, it is evaluated as practical as rice herbicide.

[15] = test system: Cyperus difformis L.; assay: as above; conditions: 50 g ai/ha, evaluated 3 weeks after treatment
Text: as §9, §10

[16] = test system: Scirpus juncoides Roxburgh; assay: as above; conditions: 50 g ai/ha, evaluated 3 weeks after treatment
Text: as §9, §10

[17] = test system: annual broad-leaved weeds; assay: as above; conditions: 50 g ai/ha, evaluated 3 weeks after treatment
Text: as §9, §10

[18] = test system: transplanted rice (var. Nipponbare); assay: Test for phytotoxicity to transplanted rice (Test Example 4); conditions: 60 g ai/ha, application 5 days after transplanting, examined 2 weeks after treatment; for phytotoxicity to transplanted rice depth 0 cm: planting depth 0 cm; for phytotoxicity to transplanted rice depth 0.5 cm: planting depth 0.5 cm; for phytotoxicity to transplanted rice depth 2 cm: planting depth 2 cm
Procedure: The phytotoxicity to transplanted rice was evaluated under the conditions with more shallow planting depths than usual depth of 2 cm, simulating the severe condition for herbicides to cause rice injury in the paddy. In a greenhouse 2 to 2.5 leaf-stage of rice (var. Nipponbare) was transplanted at three different depths, in a 1000 cm^2 pot filled with paddy field soil. Then water was poured to a depth of about 2 to about 3 cm. Five days after transplanting, a prescribed, diluted solution of the formulation of each active compound, prepared in the same manner as the above-mentioned Test Example 1, was applied to the surface of water. After the treatment the water depth of 3 cm was maintained and the rice injury was examined after 2 weeks from the treatment. The rice injury was rated 100% in the case of complete death and as 0% in the case of no injury. In case of showing less than 20% injury, it is evaluated as practical as rice herbicide.

[19] = test system: direct-seedling rice var. RD-23; assay: Test for phytotoxicity to direct-seedling rice (Test Example 5); conditions: 50 g ai/ha; spray at two leaf-stage of rice; evaluated 2 weeks after treatment
Text: as §9, §10

[20] = test system: direct-seedling rice var. Nipponbare; assay: as above; conditions: 50 g ai/ha; spray at two leaf-stage of rice; evaluated 2 weeks after treatment
Text: as §9, §10

[21] = 15 g ai/ha, application 5 days after inoculation
[22] = 15 g ai/ha, application 13 days after inoculation
[23] = 30 g ai/ha, application 5 days after inoculation
[24] = 30 g ai/ha, application 13 days after inoculation
[25] = 60 g ai/ha, application 5 days after inoculation
[26] = 60 g ai/ha, application 13 days after inoculation

COc1cc(OC)nc(C(O)c2cccc(F)c2NS(=O)(=O)C(F)F)n1 (stereo not shown) [Compound 1, 2-fluoro-6-[(4,6-dimethoxypyrimidin-2-yl)hydroxymethyl]-N-difluoromethanesulfonanilide]
herbicidal effect against sulfonylurea resistant weeds Scirpus juncoides (collected in Iwamizawa area, Hokkaido) ([1]; 30 g ai/ha): 100% | herbicidal effect against sulfonylurea resistant weeds Scirpus juncoides (collected in Iwamizawa area, Hokkaido) ([1]; 60 g ai/ha): 100% | herbicidal effect against sulfonylurea resistant weeds Lindernia procumbens (collected in Higashi-Hiroshima area, Hiroshima Pref.) ([2]; 30 g ai/ha): 100% | herbicidal effect against sulfonylurea resistant weeds Lindernia procumbens (collected in Higashi-Hiroshima area, Hiroshima Pref.) ([2]; 60 g ai/ha): 100% | herbicidal effect against sulfonylurea resistant weeds Elatine triandra (collected in Kazo area, Saitama Pref.) ([3]; 30 g ai/ha): 100% | herbicidal effect against sulfonylurea resistant weeds Elatine triandra (collected in Kazo area, Saitama Pref.) ([3]; 60 g ai/ha): 100% | herbicidal effect against sulfonylurea resistant weeds Lindernia procumbens (collected in Kazo area, Saitama Pref.) ([4]; 30 g ai/ha): 95% | herbicidal effect against sulfonylurea resistant weeds Lindernia procumbens (collected in Kazo area, Saitama Pref.) ([4]; 60 g ai/ha): 100% | herbicidal effect Monochoria vaginalis [5, 21]: 100% | herbicidal effect Monochoria vaginalis [5, 22]: 100% | herbicidal effect Monochoria vaginalis [5, 23]: 100% | herbicidal effect Monochoria vaginalis [5, 24]: 100% | herbicidal effect Cyperus serotinus [6, 21]: 100% | herbicidal effect Cyperus serotinus [6, 22]: 95% | herbicidal effect Cyperus serotinus [6, 23]: 100% | herbicidal effect Cyperus serotinus [6, 24]: 100% | herbicidal effect Scirpus juncoides [7, 21]: 100% | herbicidal effect Scirpus juncoides [7, 22]: 100% | herbicidal effect Scirpus juncoides [7, 23]: 100% | herbicidal effect Scirpus juncoides [7, 24]: 100% | herbicidal effect broad-leaved weeds [8, 21]: 100% | herbicidal effect broad-leaved weeds [8, 22]: 95% | herbicidal effect broad-leaved weeds [8, 23]: 100% | herbicidal effect broad-leaved weeds [8, 24]: 100% | period showing sufficient residual herbicidal effectiveness Monochoria vaginalis [9]: 4 week | period showing sufficient residual herbicidal effectiveness Sagittaria pygmaea [10]: 3 week | period showing sufficient residual herbicidal effectiveness Cyperus serotinus [11]: 3 week | period showing sufficient residual herbicidal effectiveness Scirpus juncoides [12]: 6 week | period showing sufficient residual herbicidal effectiveness broad-leaved weeds [13]: 3 week

COc1cc(OC)nc(Cc2cccc(Cl)c2NS(=O)(=O)C(F)F)n1 [Compound 11, 2-chloro-6-[(4,6-dimethoxypyrimidin-2-yl)methyl]-N-difluoromethanesulfonanilide]
herbicidal effect against sulfonylurea resistant weeds Scirpus juncoides (collected in Iwamizawa area, Hokkaido) ([1]; 30 g ai/ha): 100% | herbicidal effect against sulfonylurea resistant weeds Scirpus juncoides (collected in Iwamizawa area, Hokkaido) ([1]; 60 g ai/ha): 100% | herbicidal effect against sulfonylurea resistant weeds Lindernia procumbens (collected in Kazo area, Saitama Pref.) ([4]; 30 g ai/ha): 100% | herbicidal effect against sulfonylurea resistant weeds Lindernia procumbens (collected in Kazo area, Saitama Pref.) ([4]; 60 g ai/ha): 100% | herbicidal effect Monochoria vaginalis [14]: 100% | herbicidal effect Cyperus difformis L. [15]: 100% | herbicidal effect Scirpus juncoides [16]: 90% | herbicidal effect broad-leaved weeds [17]: 100% | phytotoxicity to transplanted rice depth 0 cm [18]: 15% | phytotoxicity to transplanted rice depth 0.5 cm [18]: 15% | phytotoxicity to transplanted rice depth 2 cm [18]: 10% | herbicidal effect Monochoria vaginalis [5, 25]: 100% | herbicidal effect Monochoria vaginalis [5, 26]: 100% | herbicidal effect Cyperus serotinus [6, 25]: 100% | herbicidal effect Cyperus serotinus [6, 26]: 95% | herbicidal effect Scirpus juncoides [7, 25]: 100% | herbicidal effect Scirpus juncoides [7, 26]: 100% | herbicidal effect broad-leaved weeds [8, 25]: 100% | herbicidal effect broad-leaved weeds [8, 26]: 100% | period showing sufficient residual herbicidal effectiveness Monochoria vaginalis [9]: 3 week | period showing sufficient residual herbicidal effectiveness Sagittaria pygmaea [10]: 4 week | period showing sufficient residual herbicidal effectiveness Scirpus juncoides [12]: 4 week | period showing sufficient residual herbicidal effectiveness broad-leaved weeds [13]: 4 week | Phytotoxicity to direct-seedling rice RD-23 [19]: 10% | Phytotoxicity to direct-seedling rice Nipponbare [20]: 10%

COCc1cccc(C(O)c2nc(OC)cc(OC)n2)c1NS(=O)(=O)C(F)F (stereo not shown) [Compound C-2, reference compound]
herbicidal effect Monochoria vaginalis [14]: 100% | herbicidal effect Cyperus difformis L. [15]: 100% | herbicidal effect Scirpus juncoides [16]: 90% | herbicidal effect broad-leaved weeds [17]: 100% | phytotoxicity to transplanted rice depth 0 cm [18]: 40% | phytotoxicity to transplanted rice depth 0.5 cm [18]: 30% | phytotoxicity to transplanted rice depth 2 cm [18]: 30% | period showing sufficient residual herbicidal effectiveness Monochoria vaginalis [9]: 2 week | period showing sufficient residual herbicidal effectiveness Sagittaria pygmaea [10]: 3 week | period showing sufficient residual herbicidal effectiveness Scirpus juncoides [12]: 2 week | period showing sufficient residual herbicidal effectiveness broad-leaved weeds [13]: 2 week | Phytotoxicity to direct-seedling rice RD-23 [19]: 30% | Phytotoxicity to direct-seedling rice Nipponbare [20]: 50%
